Assay results: patent US20190269666A1, “COMBINATION THERAPY WITH MERESTINIB AND ANTI-PD-L1 OR ANTI-PD-1 INHIBITORS FOR USE IN THE TREATMENT OF CANCER” (Eli Lilly and Company, priority 2016, published 2019)

Test system: 80-murine immune gene panel (mRNA expression) in CT26 tumors
Test: Immuno-landscape analysis, QuantiGene mu-80 immune gene panel on CT26 tumors
Format: in vivo, mouse
Conditions: for Log2 (difference to vehicle control): CT26 tumors, Day 20
Description: Frozen tumor fragments of the samples collected on study Day 20 from 5 animals from each treatment arm (study S010516) are analyzed for gene expression of 80 markers using the Quantigene murine-80 panel (mu-80 immune panel #21681). Total RNA was isolated from lysed samples using the MAGMAX™ 96 Total RNA isolation kit (Life Technologies). Snap-frozen tumor fragments are lysed by adding 500 μL, of prepared lysis/binding buffer (MAGMAX™ 96 Total RNA isolation kit) with a single stainless steel bead (5 mm) and then homogenized on a TissueLyser (Qiagen) for 2 minutes at 25 Hz. 200 μL of lysate, along with 120 μL of 100% isopropanol and 40 μL of prepared magnetic beads mix are then transferred to a 96 deep well processing plate. A series of washes and a DNase incubation step are processed on the MAGMAX™ Express-96 Deep Well Magnetic Particle Processor (Life Technologies). RNA is eluted from the magnetic beads with […] of elution buffer after a final wash step. RNA concentration is determined spectrophotometrically to determine optical density at 260 and 280 nm and is then diluted to the final concentration of 25 ng/μl. Tissue expression of immune related genes is then measured using a QuantiGene® 2.0 Plex assay (Affymetrix) with a custom probe set (mu-80 immune panel #21681, Table 6). Four house-keeping-genes (HKG: Gusb, Hprt1, Ppib, Rps18) are used to normalize the gene expression data. Data are normalized and curated using the Genepattern script v28.8. Statistics and bioinformatics are used to analyze the data.
Five hundred ng of total RNA from samples being analyzed is added in duplicate to individual wells of a 96-well hybridization plate containing QuantiGene® magnetic capture beads, QuantiGene® probeset #21681, and QuantiGene® blocking reagent for a final volume of 100 μL. The hybridization plate is then sealed and incubated at 54° C. while agitated at 600 rpm for 16 hours. Samples are then transferred to a 96-well assay plate and beads are then sequentially hybridized first with 100 μl of QuantiGene® Pre-Amplifier Probe, then with QuantiGene® Amplifier Probe, and finally with QuantiGene® Label Probe (1 hour at 50° C. for each step, with 2-3 washes between each step using a magnetic capture plate). Streptavidin-conjugated R-Phycoerythrin (SAPE, Affymetrix) is added after the last hybridization step and incubated for 30 minutes at room temperature with agitation at 600 rpm. Samples are then analyzed on the FLEXMAP 3D® Luminex instrument (Luminex Corp). Beads (mRNA target) are identified with a red laser while the level of RNA is determined by measuring the mean fluorescence intensity (MFI) of Phycoerythrin with a green laser. Raw MFI data are then converted into relative gene expression for each gene (Normalized Adjusted Net MFI, background subtracted and normalized to 4 housekeeping genes), using a quality control analysis script with GenePattern (Broad Institute). […] Next, the lower limit of detection (LLOD) is determined (average background MFI+3 standard deviation (SD)). […] Relative gene expression is then calculated by normalizing for each gene's adjusted net MFI to the geometric mean of the MFI of selected housekeeping genes (HKG) including Hprt1, Gusb, Rps18 and Ppib, as shown in Table 6: (Sample Adjusted Net MFI/geometric mean Adjusted Net HKG MFI) multiplied by a scaling factor of 100. […]

## Cc1ccc(C(=O)Nc2ccc(Oc3cc4cnn(C)c4cc3-c3cn[nH]c3)c(F)c2)c(=O)n1-c1ccc(F)cc1 [merestinib, N-(3-fluoro-4-(1-methyl-6-(1H-pyrazol-4-yl)-1H-indazol-5-yloxy)phenyl)-1-(4-fluorophenyl)-6-methyl-2-oxo-1,2-dihydropyridine-3-carboxamide]
Gene Cdh1
  Log2 (difference to vehicle control): 1.01
Gene Cdh1, listed as Merestinib alone
  Log2 (difference to vehicle control): 1.0
Gene Tnfrsf
  Log2 (difference to vehicle control): 0.8
Of an 80-immune gene panel
  number of immune genes with no significant change vs vehicle control: 79
Of the 80 immune genes measured, tumors Day 20
  number of immune genes significantly different from vehicle control: 1
